The values that follow come from patent US20130123460A1, “PEPTIDE FOR IMPROVING BIOSTABILITY OF BIOACTIVE SUBSTANCE, AND BIOACTIVE SUBSTANCE HAVING IMPROVED BIOSTABILITY” (priority 2010, published 2013).

One data set is described as follows: in vitro. The following applies: SD, rat, plasma.
A short description of data set [1]: Plasma stability of somatostatin peptide complex (remaining rate in rat plasma).
Description: (§1) The plasma stability was evaluated in vitro, in order to inspect the biostability of the somatostatin peptide complex.
(§2) SD rats were anesthetized with diethyl ether, whole blood was collected, and a plasma fraction was separated therefrom. The somatostatin or somatostatin peptide complex was added to the plasma so that the final concentration thereof was 0.5 μmol/L, and the mixture was incubated at 37° C. A sample was recovered after 0, 8 or 48 hours, and a remaining rate was evaluated by an HPLC/MS measurement of an amount of the somatostatin or somatostatin peptide complex.
The target of another data set is T1, endogenous SSTR 5 (Mus musculus, UniProt O08858).
T1 construct: expressing an endogenous SSTR 5; endogenous in cells; host or cells: MIN 6 mouse insulinoma cells (obtained from a person)
T1 sequence (O08858 1-362): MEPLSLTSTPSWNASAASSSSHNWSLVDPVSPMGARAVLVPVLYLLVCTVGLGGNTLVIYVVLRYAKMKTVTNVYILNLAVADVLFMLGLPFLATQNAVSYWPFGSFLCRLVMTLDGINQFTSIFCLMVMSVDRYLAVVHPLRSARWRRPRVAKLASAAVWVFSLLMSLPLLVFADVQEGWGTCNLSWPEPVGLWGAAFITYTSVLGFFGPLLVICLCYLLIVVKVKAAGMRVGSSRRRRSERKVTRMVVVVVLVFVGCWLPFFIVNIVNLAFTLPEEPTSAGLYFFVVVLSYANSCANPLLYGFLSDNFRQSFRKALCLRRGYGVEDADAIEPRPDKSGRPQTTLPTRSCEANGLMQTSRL
Briefly: Suppressibility of insulin secretion in MIN 6 cells. Format: cell-based. The conditions noted are these: 20 mM glucose, 1-1000 nM. As to the method:
The suppressibility of insulin secretion was evaluated using MIN 6 (obtained from a person) which was an insulinoma cell derived from a mouse, expressing an endogenous SSTR 5. MIN 6 was seeded on a multi-plate, which was cultivated at 37° C. for 48 hours. […] A supernatant thereof was recovered, and an amount of insulin secreted was measured. The measurement of the insulin was performed in an enzyme-linked immunosorbent assay (ELISA), and an absorbance was measured at 450 nm (a sub-wavelength: 620 nm) after the addition of a substrate.
In this experiment, the activity evaluations of the native SRIF (Comparative Example 15) and the GAm (28-44)-SRIF-NH2(Example 29) were performed in a concentration of 1, 3, 10, 30, 100, 300, and 1000 nM, and the maximum suppression rate (%) of the insulin secretion was calculated. The maximum suppression rate (%) of the insulin secretion in the somatostatin peptide complex was calculated according to the following formula. Maximum Suppression Rate (%) of Insulin Secretion (%)=[{(the maximum value of the suppression of the insulin secretion in the SRIF peptide complex)/(the maximum value of the suppression of the insulin secretion in the native SRIF)]×100

In another data set the test system is db/db mice. Briefly: Sustained blood glucose-lowering effect in type 2 diabetes mellitus model mice. Format: in vivo. The following applies: subcutaneous, 50 nmol/kg.

Where a SMILES comes first, the peptide text is derived from it. Bridges are numbered along the chain shown (N, C = ends).

Description for db/db mice: The improvement of the biostability was evaluated using a duration time of blood glucose-lowering effect in vivo as an indicator. […] The blood glucose level was measured using Glucose Test Wako (Wako Pure Chemical Industries, Ltd.).
Description for in vitro: as §1, §2

Broadly, the amount remaining is what is left of the initial amount, in per cent. Lower therefore signals a greater loss. In the data set “in vitro”, `CC[C@H](C)[C@H](NC(=O)[C@H](CCC(=O)O)NC(=O)[C@H](CC(=O)O)NC(=O)[C@@H](NC(=O)[C@H](CC(C)C)NC(=O)[C@H](C)NC(=O)[C@H](CCCCN)NC(=O)[C@@H](NC(=O)CNC(=O)[C@H](CCC(=O)O)NC(=O)[C@@H](NC(=O)[C@@H](NC(=O)[C@H](CCCCN)NC(=O)[C@H](C)NC(=O)[C@@H]1CSSC[C@H](NC(=O)CNC(=O)[C@H](C)N)C(=O)N[C@@H](CCCCN)C(=O)N[C@@H](CC(N)=O)C(=O)N[C@@H](Cc2ccccc2)C(=O)N[C@@H](Cc2ccccc2)C(=O)N[C@@H](Cc2c[nH]c3ccccc23)C(=O)N[C@@H](CCCCN)C(=O)N[C@@H]([C@@H](C)O)C(=O)N[C@@H](Cc2ccccc2)C(=O)N[C@@H]([C@@H](C)O)C(=O)N[C@@H](CO)C(=O)N1)[C@@H](C)O)C(C)C)C(C)C)[C@@H](C)CC)C(=O)N[C@@H](CC(C)C)C(=O)N[C@@H](C)C(=O)N[C@@H](C)C(N)=O` [Example 28, SRIF(1-14)-GAm(28-44)-NH2] (H-AGCKNFFWKTFTSCAKTVEGVKALIDEILAA-NH2; disulfide 3-14; N-terminus assumed) had an amount remaining at 8 h, 0.5 μmol/L of 56% and a fraction remaining at 48 h, 0.5 μmol/L of 0%.
In data set [1] (SD, rat, plasma), `CC[C@H](C)[C@H](NC(=O)[C@H](CCC(=O)O)NC(=O)[C@H](CC(=O)O)NC(=O)[C@@H](NC(=O)[C@H](CC(C)C)NC(=O)[C@H](C)NC(=O)[C@H](CCCCN)NC(=O)[C@@H](NC(=O)CNC(=O)[C@H](CCC(=O)O)NC(=O)[C@@H](NC(=O)[C@@H](NC(=O)[C@H](CCCCN)NC(=O)[C@H](C)N)[C@@H](C)O)C(C)C)C(C)C)[C@@H](C)CC)C(=O)N[C@@H](CC(C)C)C(=O)N[C@@H](C)C(=O)N[C@@H](C)C(=O)N[C@@H](C)C(=O)NCC(=O)N[C@H]1CSSC[C@@H](C(N)=O)NC(=O)[C@H](CO)NC(=O)[C@H]([C@@H](C)O)NC(=O)[C@H](Cc2ccccc2)NC(=O)[C@H]([C@@H](C)O)NC(=O)[C@H](CCCCN)NC(=O)[C@H](Cc2c[nH]c3ccccc23)NC(=O)[C@H](Cc2ccccc2)NC(=O)[C@H](Cc2ccccc2)NC(=O)[C@H](CC(N)=O)NC(=O)[C@H](CCCCN)NC1=O` [Example 29, GAm(28-44)-SRIF(1-14)-NH2] (H-AKTVEGVKALIDEILAAAGCKNFFWKTFTSC-NH2; disulfide 20-31; N-terminus assumed) returned an amount remaining at 8 h, 0.5 μmol/L of 80% and a fraction remaining at 48 h, 0.5 μmol/L of 23%. Also, the “Remaining rate in plasma after 8 hours (%)” value in data set [1] (somatostatin complexes, rat plasma, 0.5 μmol/L, 37° C., 8 hours) is given as 80%. For the same compound, the “Remaining rate in plasma after 48 hours (%)” value in data set [1] (somatostatin complexes, rat plasma, 0.5 μmol/L, 37° C., 48 hours) was 23%. Moreover, at endogenous SSTR 5, the “Suppression rate of insulin secretion (%), maximum, relative to native SRIF” value was found to be 90%.
With “[Ser8]-GLP-1(7-36)-NH2 [Comparative Example 2]”, the “Time after administration at which the glucose-lowering effect disappeared” value in the data set with db/db mice is on record as “two hours”.
